Measurements reported in ChEMBL document CHEMBL3600287, “New heterocyclic compounds: Synthesis and antitrypanosomal properties” (Bioorg Med Chem, 2015).

Tests used:
[1] = tested on: Trypanosoma brucei brucei; assay: Antitrypanosomal activity against Trypanosoma brucei brucei CMP infected in Swiss mouse assessed as mean survival time at 100 umol/kg, ip administered as single dose; format: functional
[2] = tested on: Trypanosoma brucei brucei; assay: Antitrypanosomal activity against Trypanosoma brucei brucei CMP infected in Swiss mouse assessed as cure rate at 100 umol/kg, ip administered as single dose; format: functional
[3] = tested on: Mus musculus; assay: Toxicity against Swiss mouse infected with Trypanosoma brucei brucei CMP assessed as animal death at 100 umol/kg, ip administered as single dose; format: organism-based; details: in vivo
[4] = tested on: Trypanosoma brucei brucei; assay: Antitrypanosomal activity against Trypanosoma brucei brucei CMP infected in Swiss mouse assessed as parasite number level ul of blood at 100 umol/kg, ip administered as single dose measured on day 2; format: functional
[5] = tested on: Trypanosoma brucei brucei; assay: Antitrypanosomal activity against Trypanosoma brucei brucei CMP infected in Swiss mouse assessed as parasite number level ul of blood at 100 umol/kg, ip administered as single dose measured on day 3; format: functional
[6] = tested on: Trypanosoma brucei brucei; assay: Antitrypanosomal activity against Trypanosoma brucei brucei CMP infected in Swiss mouse assessed as parasite number level ul of blood at 100 umol/kg, ip administered as single dose measured on day 4; format: functional
[7] = tested on: Trypanosoma brucei gambiense; assay: Antitrypanosomal activity against Trypanosoma brucei gambiense FeoITMAP/1893 assessed as inhibition of parasite growth after 72 hrs by resazurin dye based microplate reader analysis; format: functional, organism-based; details: FeoITMAP/1893, 72 h
[8] = Cytotoxicity against monkey LLC-MK2 cells; format: cell-based, Macaca mulatta; details: rhesus monkey
[9] = Selectivity index, ratio of CC50 for mouse 3T6 cells to IC50 for Trypanosoma brucei gambiense strain FeoITMAP/1893; format: functional
[10] = tested on: Trypanosoma brucei brucei; assay: Antitrypanosomal activity against Trypanosoma brucei brucei CMP infected in Swiss mouse assessed as parasite number level ul of blood at 50 umol/kg, ip administered as single dose measured on day 2; format: functional
[11] = tested on: Trypanosoma brucei brucei; assay: Antitrypanosomal activity against Trypanosoma brucei brucei CMP infected in Swiss mouse assessed as parasite number level ul of blood at 50 umol/kg, ip administered as single dose measured on day 3; format: functional
[12] = tested on: Trypanosoma brucei brucei; assay: Antitrypanosomal activity against Trypanosoma brucei brucei CMP infected in Swiss mouse assessed as parasite number level ul of blood at 50 umol/kg, ip administered as single dose measured on day 4; format: functional
[13] = Cytotoxicity against mouse 3T6 cells assessed as inhibition of cell proliferation after 48 hrs by MTT assay; format: cell-based
[14] = tested on: Trypanosoma brucei brucei; assay: Antitrypanosomal activity against Trypanosoma brucei brucei CMP infected in Swiss mouse assessed as mean survival time at 50 umol/kg, ip administered as single dose; format: functional
[15] = tested on: Trypanosoma brucei brucei; assay: Antitrypanosomal activity against Trypanosoma brucei brucei CMP infected in Swiss mouse assessed as cure rate at 50 umol/kg, ip administered as single dose; format: functional
[16] = tested on: Mus musculus; assay: Toxicity against Swiss mouse infected with Trypanosoma brucei brucei CMP assessed as animal death at 50 umol/kg, ip administered as single dose; format: organism-based; details: in vivo
[17] = tested on: Trypanosoma brucei brucei; assay: Antitrypanosomal activity against Trypanosoma brucei brucei CMP infected in Swiss mouse assessed as parasite number level ul of blood at 100 umol/kg, ip administered as single dose measured on day 30; format: functional

SMILES	MST [1] [days]	Activity [2] [%]	Activity [3]	Activity [4] [µL⁻¹]	Activity [5] [µL⁻¹]	Activity [6] [µL⁻¹]	IC50 [7] [µM]	Ratio CC50/IC50 [9]	CC50 at 48 h [13] [µM]	further results
CCN(CC)CCCC(C)Nc1ccnc2cc(Cl)ccc12.O=P(O)(O)O.O=P(O)(O)O (stereo not drawn) [CHLOROQUINE PHOSPHATE]	0	0	Non-toxic	23.7	498	42607	–	–	–	–
Clc1ccc2c(Nc3ccc(-c4nc5ccccc5[nH]4)cc3)ccnc2c1	–	–	–	–	–	–	3.79	4.1	–	CC50 [8]: 15.5 µM
O=C(O)c1cn(C2CC2)c2cc(N3CCNCC3)c(F)cc2c1=O [CIPROFLOXACIN]	–	–	–	–	–	–	52	–	–	–
CCOC(=O)c1cn(C2CC2)c2cc(N3CCN(Cc4ccccc4)CC3)c(F)cc2c1=O	8.2	0	Non-toxic	0	0	0	6.03	5	> 30	Activity [10]: 0 µL⁻¹; Activity [11]: 0 µL⁻¹; Activity [12]: 7 µL⁻¹; MST [14]: 6.1 days; Activity [15]: 0%; Activity [16]: Non-toxic
CCOC(=O)c1cn(C2CC2)c2cc(N3CCN(CC45CC6CC(CC(C6)C4)C5)CC3)c(F)cc2c1=O	–	–	–	–	–	–	23.1	1.2	27.8	–
N=C(N)c1ccc(OCCCCCOc2ccc(C(=N)N)cc2)cc1.O=S(=O)(O)CCO	>30	100	Non-toxic	–	0	0	–	–	–	Activity [17]: 0 µL⁻¹
N=C(N)c1ccc(OCCCCCOc2ccc(C(=N)N)cc2)cc1 [PENTAMIDINE]	–	–	–	–	–	–	0.0049	–	–	–
Fc1ccc2[nH]c(-c3ccc(Nc4ccnc5cc(Cl)ccc45)cc3)nc2c1	1.2	0	Non-toxic	0	97	31590	1.98	5.3	–	Activity [10]: 13.7 µL⁻¹; Activity [11]: 117 µL⁻¹; Activity [12]: 28317 µL⁻¹; CC50 [8]: 10.6 µM; MST [14]: 1.1 days; Activity [15]: 0%; Activity [16]: Non-toxic
CCOC(=O)c1cn(C2CC2)c2cc(N3CCNCC3)c(F)cc2c1=O [CIPROFLOXACIN ETHYL ESTER]	–	–	–	–	–	–	26	1.2	> 30	–
